# Calls of active or inactive are those of the source. The rule behind the calls is not given here.
# How the values were obtained:
# [1] = test system: Rattus norvegicus; assay: Percentage of animals emitting 50 presses on the LSD appropriate lever during the test period in rat at 5.84 mg/kg (16 umol/kg); type: functional
# [2] = species: Rattus norvegicus; assay: Percentage of animals emitting 50 presses on the LSD appropriate lever during the test period; type: functional
# [3] = test system: Rattus norvegicus; assay: Percentage of animals failing to emit 50 presses on either lever within the 15-min test period in rat at 0.365 mg/kg (1 uM/kg); type: functional
# [4] = molecular target: Muscarinic acetylcholine receptor M3 (Rattus norvegicus) (UniProt P08483)
# Chain of Muscarinic acetylcholine receptor M3 (Rattus norvegicus) (P08483 whole entry, looked up): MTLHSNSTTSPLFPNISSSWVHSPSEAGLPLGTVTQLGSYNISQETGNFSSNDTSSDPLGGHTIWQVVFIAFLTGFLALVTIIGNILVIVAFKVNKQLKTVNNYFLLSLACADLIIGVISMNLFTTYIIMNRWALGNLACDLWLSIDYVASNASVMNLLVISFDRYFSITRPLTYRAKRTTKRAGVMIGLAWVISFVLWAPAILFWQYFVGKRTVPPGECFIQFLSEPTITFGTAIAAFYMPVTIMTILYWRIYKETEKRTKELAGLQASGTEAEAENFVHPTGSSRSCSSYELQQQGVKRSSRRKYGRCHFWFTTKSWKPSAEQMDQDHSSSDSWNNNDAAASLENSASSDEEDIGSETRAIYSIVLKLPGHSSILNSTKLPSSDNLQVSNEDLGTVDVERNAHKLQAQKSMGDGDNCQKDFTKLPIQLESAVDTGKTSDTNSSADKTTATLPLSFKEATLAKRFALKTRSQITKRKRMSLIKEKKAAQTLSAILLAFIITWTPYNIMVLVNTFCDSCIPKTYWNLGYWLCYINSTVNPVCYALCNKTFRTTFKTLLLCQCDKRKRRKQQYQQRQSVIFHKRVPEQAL
# [5] = molecular target: T1, Muscarinic acetylcholine receptor M1 (Mus musculus) (UniProt P12657)
# T1 sequence (whole entry): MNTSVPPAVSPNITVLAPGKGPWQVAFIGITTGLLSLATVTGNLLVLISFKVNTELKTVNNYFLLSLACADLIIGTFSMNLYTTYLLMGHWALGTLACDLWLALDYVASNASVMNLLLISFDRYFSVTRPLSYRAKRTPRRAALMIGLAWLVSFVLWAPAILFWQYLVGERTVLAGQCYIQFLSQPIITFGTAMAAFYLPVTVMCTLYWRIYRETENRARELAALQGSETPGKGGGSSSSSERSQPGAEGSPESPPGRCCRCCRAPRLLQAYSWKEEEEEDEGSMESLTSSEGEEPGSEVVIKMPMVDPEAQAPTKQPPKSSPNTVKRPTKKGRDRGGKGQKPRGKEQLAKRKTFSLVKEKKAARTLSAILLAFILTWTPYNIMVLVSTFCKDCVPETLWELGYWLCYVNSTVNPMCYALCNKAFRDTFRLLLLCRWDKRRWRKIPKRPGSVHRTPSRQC
# [6] = molecular target: T2, 5-hydroxytryptamine receptor 2C (Homo sapiens, UniProt P28335); assay: Binding ability of compound at cloned human 5-hydroxytryptamine 2C receptor using [3H]- mesulergine as radioligand
# T2 sequence (P28335 whole entry): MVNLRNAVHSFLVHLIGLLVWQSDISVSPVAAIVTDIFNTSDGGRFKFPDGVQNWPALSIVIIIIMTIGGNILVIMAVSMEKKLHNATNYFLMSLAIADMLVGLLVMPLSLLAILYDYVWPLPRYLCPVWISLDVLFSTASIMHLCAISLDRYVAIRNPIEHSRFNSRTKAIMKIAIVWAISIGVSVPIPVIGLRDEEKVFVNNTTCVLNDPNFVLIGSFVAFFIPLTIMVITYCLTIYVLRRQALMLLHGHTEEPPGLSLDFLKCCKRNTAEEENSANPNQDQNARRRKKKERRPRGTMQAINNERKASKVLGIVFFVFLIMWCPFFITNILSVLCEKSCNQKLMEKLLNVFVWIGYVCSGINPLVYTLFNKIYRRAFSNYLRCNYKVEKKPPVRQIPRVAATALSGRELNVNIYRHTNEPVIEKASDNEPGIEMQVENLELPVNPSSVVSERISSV
# [7] = molecular target: T3, 5-hydroxytryptamine receptor 2A (Homo sapiens, UniProt P28223); assay: Binding ability of compound at cloned human 5-hydroxytryptamine 2A receptor using [125 I]DOI as radioligand
# T3 sequence (P28223 whole entry): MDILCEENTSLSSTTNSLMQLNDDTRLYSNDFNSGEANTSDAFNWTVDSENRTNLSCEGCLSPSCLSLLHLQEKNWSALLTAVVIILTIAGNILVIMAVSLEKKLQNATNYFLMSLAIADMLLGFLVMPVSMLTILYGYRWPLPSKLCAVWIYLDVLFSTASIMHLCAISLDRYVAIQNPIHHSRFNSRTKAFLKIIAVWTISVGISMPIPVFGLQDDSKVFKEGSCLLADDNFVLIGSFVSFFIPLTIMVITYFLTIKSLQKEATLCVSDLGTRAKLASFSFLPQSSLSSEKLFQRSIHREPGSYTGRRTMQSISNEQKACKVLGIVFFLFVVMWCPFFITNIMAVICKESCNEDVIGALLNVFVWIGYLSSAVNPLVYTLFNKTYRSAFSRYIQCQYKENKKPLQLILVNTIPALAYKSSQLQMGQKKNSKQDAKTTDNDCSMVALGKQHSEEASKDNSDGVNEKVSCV
# [8] = molecular target: T4, 5-hydroxytryptamine receptor 2B (Homo sapiens, UniProt P41595); assay: Binding ability of compound at cloned human 5-hydroxytryptamine 2B receptor using [3H]5-HT 2B as radioligand
# T4 sequence (P41595 whole entry): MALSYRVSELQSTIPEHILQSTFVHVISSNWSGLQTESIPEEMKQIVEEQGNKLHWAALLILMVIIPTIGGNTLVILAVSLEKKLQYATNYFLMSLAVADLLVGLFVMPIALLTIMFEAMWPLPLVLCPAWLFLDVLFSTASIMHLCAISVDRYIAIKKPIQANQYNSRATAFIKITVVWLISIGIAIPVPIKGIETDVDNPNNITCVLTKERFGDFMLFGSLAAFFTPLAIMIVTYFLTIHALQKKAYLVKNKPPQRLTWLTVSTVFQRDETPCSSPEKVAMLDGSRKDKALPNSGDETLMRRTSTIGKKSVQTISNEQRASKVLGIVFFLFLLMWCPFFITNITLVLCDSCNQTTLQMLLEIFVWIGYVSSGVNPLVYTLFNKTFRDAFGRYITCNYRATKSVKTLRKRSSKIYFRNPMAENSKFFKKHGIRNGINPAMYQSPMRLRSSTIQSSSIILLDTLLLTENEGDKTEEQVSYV
# [9] = test system: Rattus norvegicus; assay: Percentage of animals failing to emit 50 presses on either lever within the 15-min test period in rat at 2.92 mg/kg (8 umol/kg); type: functional
# [10] = test system: Rattus norvegicus; assay: Percentage of animals failing to emit 50 presses on either lever within the 15-min test period in rat at 1.46 mg/kg (4 umol/kg); type: functional
# [11] = species: Rattus norvegicus; assay: (§1) Effective dose for LSD-like behavioral effect in rats; Not significant; type: functional, organism-based
# [12] = test system: Rattus norvegicus; assay: Percentage of animals failing to emit 50 presses on either lever within the 15-min test period in rat at 0.78 mg/kg(2 uM/kg); type: functional
# [13] = test system: Rattus norvegicus; assay: Percentage of animals failing to emit 50 presses on either lever within the 15-min test period in rat at 5.84 mg/kg (16 umol/kg); type: functional
# [14] = molecular target: T5, Muscarinic acetylcholine receptor M2 (Rattus norvegicus) (UniProt P10980)
# T5 sequence (whole entry): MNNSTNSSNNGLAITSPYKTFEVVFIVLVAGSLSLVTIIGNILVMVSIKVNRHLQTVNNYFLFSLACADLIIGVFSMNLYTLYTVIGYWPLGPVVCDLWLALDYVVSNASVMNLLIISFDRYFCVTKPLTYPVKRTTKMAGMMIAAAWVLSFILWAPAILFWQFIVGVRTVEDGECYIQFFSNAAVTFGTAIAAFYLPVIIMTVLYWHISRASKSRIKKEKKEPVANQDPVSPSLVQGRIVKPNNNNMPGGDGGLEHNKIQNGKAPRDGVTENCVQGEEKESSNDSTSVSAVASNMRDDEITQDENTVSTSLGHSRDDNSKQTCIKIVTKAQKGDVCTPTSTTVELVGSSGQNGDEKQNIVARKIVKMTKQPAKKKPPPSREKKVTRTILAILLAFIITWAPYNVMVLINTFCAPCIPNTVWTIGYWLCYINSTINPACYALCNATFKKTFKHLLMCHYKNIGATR
# [15] = species: Rattus norvegicus; assay: as §1; type: functional, organism-based; remark: listed apart in the source
# [16] = test system: Rattus norvegicus; assay: Percentage of animals emitting 50 presses on the LSD appropriate lever during the test period in rat at 0.78 mg/kg(2 uM/kg); type: functional
# [17] = test system: Rattus norvegicus; assay: Percentage of animals emitting 50 presses on the LSD appropriate lever during the test period in rat at 1.46 mg/kg (4 umol/kg); type: functional
# [18] = molecular target: T4, 5-hydroxytryptamine receptor 2B; assay: Binding ability of compound at cloned human 5-hydroxytryptamine 2B receptor using [3H]- rauwolscine as radioligand
# [19] = test system: Rattus norvegicus; assay: Percentage of animal emitting 50 presses on the LSD appropriate lever during the test period in rat at 0.365 mg/kg (1 uM/kg); type: functional
# [20] = molecular target: T6, Muscarinic acetylcholine receptor M5 (Rattus norvegicus) (UniProt P08911)
# T6 sequence (whole entry): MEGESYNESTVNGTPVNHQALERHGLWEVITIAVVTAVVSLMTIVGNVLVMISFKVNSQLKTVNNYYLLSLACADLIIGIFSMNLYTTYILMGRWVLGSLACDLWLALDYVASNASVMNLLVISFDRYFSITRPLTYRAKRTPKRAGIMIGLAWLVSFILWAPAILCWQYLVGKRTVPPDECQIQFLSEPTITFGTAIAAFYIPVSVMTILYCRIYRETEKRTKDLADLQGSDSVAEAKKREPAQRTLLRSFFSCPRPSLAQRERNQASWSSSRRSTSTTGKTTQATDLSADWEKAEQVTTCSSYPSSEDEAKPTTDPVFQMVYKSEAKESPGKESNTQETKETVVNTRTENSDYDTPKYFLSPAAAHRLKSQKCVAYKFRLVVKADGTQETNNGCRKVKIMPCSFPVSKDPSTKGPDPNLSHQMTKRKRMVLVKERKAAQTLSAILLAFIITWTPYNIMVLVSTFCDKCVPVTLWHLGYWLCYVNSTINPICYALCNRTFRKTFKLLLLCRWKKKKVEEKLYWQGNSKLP
# [21] = molecular target: T2, 5-hydroxytryptamine receptor 2C; assay: Binding ability of compound at cloned human 5-hydroxytryptamine 2C receptor using [125 I]DOI as radioligand
# [22] = molecular target: 5-hydroxytryptamine receptor 2A (Rattus norvegicus, UniProt P14842); assay: Affinity at [3H]ketanserin-labeled 5-hydroxytryptamine 2A receptor in rat brain homogenate was determined; type: tissue-based
# Chain of 5-hydroxytryptamine receptor 2A (Rattus norvegicus, UniProt P14842) (P14842 whole entry): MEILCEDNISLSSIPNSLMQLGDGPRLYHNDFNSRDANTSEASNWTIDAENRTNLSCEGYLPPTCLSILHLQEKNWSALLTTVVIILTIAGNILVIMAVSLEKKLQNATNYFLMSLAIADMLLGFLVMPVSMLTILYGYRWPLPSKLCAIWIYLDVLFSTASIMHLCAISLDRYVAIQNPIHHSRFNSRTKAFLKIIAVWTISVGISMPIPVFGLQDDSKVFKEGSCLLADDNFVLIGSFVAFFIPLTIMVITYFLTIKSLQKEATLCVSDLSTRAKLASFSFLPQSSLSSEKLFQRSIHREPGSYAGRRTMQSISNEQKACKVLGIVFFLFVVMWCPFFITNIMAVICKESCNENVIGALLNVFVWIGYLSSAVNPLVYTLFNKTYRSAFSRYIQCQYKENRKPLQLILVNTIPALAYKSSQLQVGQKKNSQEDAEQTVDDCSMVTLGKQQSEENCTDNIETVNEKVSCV
# [23] = molecular target: T7, Muscarinic acetylcholine receptor M4 (Rattus norvegicus) (UniProt P08485)
# T7 sequence (whole entry): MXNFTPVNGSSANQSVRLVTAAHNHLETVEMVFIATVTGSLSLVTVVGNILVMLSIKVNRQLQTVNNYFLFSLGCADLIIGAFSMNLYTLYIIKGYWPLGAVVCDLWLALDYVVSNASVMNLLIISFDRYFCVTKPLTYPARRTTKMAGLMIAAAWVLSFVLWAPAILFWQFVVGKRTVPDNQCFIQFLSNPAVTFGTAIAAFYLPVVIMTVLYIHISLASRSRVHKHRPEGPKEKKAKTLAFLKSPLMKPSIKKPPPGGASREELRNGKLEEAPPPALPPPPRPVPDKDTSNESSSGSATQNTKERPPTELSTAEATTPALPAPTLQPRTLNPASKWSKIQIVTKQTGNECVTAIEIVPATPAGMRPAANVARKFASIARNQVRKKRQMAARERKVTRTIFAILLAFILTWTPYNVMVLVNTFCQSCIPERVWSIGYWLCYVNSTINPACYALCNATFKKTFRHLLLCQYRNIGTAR
# [24] = molecular target: T3, 5-hydroxytryptamine receptor 2A; assay: Binding ability of compound at cloned human 5-hydroxytryptamine 2A receptor using [3H]ketanserin as radioligand
# [25] = species: Rattus norvegicus; assay: Effective dose for LSD-like behavioral effect in rats; type: functional
# [26] = molecular target: T8, 5-hydroxytryptamine receptor 1A (Rattus norvegicus, UniProt P19327); assay: Affinity at [3H]8-OH-DPAT-labeled 5-hydroxytryptamine 1A receptor in rat brain homogenate was determined; type: tissue-based
# T8 sequence (P19327 whole entry): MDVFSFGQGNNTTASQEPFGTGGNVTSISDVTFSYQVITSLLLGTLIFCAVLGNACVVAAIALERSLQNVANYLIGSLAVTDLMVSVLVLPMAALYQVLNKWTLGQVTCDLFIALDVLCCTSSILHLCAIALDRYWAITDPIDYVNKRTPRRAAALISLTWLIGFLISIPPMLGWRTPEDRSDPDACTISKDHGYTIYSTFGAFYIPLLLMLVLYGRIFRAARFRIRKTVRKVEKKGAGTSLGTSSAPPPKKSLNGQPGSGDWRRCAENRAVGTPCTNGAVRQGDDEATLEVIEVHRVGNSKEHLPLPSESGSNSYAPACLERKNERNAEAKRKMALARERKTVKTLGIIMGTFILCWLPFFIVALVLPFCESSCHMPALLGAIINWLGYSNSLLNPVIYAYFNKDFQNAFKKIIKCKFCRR
smiles,measurement,setting,value
COc1cc(Br)c2c3c1C[C@H](N)C[C@@H]3CO2,SDL,[1],44%
same,SDL,[2],33%
same,D,[3],0%
same,K 0.5,[4],12 nM
same,K 0.5,[5],20 nM
same,Ki,[6],89.6 nM
same,Ki,[7],13 nM
same,Ki,[8],263 nM
same,D,[9],0%
same,D,[10],0%
same,ED50,[11],inactive
same,D,[12],0%
same,D,[13],15%
same,K 0.5,[14],41 nM
same,ED50,[15],inactive
same,SDL,[16],0%
same,SDL,[17],10%
same,Ki,[18],255 nM
same,SDL,[19],0%
same,K 0.5,[20],33 nM
same,Ki,[21],5.96 nM
same,Ki,[22],1050 nM
same,K 0.5,[23],30 nM
same,Ki,[24],240 nM
COc1cc(C[C@@H](C)N)c(OC)cc1Br,ED50,[25],1.12 mg/kg
same,Ki,[26],6100 nM
CCCN(CCC)[C@H]1Cc2c(OC)ccc3c2[C@@H](CO3)C1,Ki,[26],144000 nM
same,Ki,[22],644 nM
CN1[C@@H]2CC[C@H]1C[C@@H](OC(=O)C(CO)c1ccccc1)C2 (stereo partly drawn),K 0.5,[4],0.6 nM
same,K 0.5,[5],0.6 nM
same,K 0.5,[14],1.8 nM
same,K 0.5,[20],0.7 nM
same,K 0.5,[23],0.5 nM

# Source: ChEMBL document CHEMBL1131247, “Substituted naphthofurans as hallucinogenic phenethylamine-ergoline hybrid molecules with unexpected muscarinic antagonist activity” (J Med Chem, 1998)
